Measured values published in ChEMBL document CHEMBL1130312, “Synthesis and receptor binding affinity of conformationally restricted retinoic acid analogues” (Bioorg Med Chem Lett, 1997).

How the values were obtained:
[1] = biological target: T1, Retinoic acid receptor beta (Homo sapiens, UniProt P10826); experiment: Binding affinity towards cRAR-beta-2 receptor by displacing 0.82 nM 3[H]-all-trans-RA; IA = Inactive
T1 sequence (P10826 whole entry): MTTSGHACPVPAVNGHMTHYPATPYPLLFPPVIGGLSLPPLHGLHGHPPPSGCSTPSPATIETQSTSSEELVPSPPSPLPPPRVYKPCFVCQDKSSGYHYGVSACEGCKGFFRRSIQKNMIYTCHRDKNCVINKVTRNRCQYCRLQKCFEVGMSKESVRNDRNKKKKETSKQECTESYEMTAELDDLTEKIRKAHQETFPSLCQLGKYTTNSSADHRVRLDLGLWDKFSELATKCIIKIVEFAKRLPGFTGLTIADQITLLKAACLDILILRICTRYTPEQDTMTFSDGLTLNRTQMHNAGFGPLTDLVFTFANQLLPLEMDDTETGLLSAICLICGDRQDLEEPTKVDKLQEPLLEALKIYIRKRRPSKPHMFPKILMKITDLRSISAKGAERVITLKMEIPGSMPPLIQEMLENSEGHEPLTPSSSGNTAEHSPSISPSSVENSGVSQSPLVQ

[2] = biological target: T2, Retinoic acid receptor RXR-gamma (Homo sapiens, UniProt P48443); experiment: Binding affinity towards Retinoic acid receptor RXR-gamma by displacing 3.4 nM 3[H]-9-cis-RA; IA = Inactive
T2 sequence (P48443 whole entry): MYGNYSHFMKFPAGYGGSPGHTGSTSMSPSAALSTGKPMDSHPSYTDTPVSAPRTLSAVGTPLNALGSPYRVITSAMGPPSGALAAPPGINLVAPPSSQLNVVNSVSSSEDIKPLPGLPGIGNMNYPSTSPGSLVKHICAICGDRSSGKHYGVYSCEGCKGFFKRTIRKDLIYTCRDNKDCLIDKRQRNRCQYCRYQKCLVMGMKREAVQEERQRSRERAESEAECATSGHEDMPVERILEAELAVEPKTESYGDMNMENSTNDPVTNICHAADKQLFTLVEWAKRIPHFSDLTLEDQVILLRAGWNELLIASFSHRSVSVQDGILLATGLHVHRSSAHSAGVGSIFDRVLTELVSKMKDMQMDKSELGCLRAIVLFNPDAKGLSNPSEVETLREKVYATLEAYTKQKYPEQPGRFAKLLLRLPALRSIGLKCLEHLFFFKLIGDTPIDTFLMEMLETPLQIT

[3] = biological target: T1, Retinoic acid receptor beta; experiment: Binding affinity towards cRAR-beta-2 receptor by displacing 1.1 nM 3[H]-9-cis-RA; IA = Inactive
[4] = biological target: T2, Retinoic acid receptor RXR-gamma; experiment: Binding affinity towards Retinoic acid receptor RXR-gamma by displacing 3.4 nM 3[H]-9-cis-RA; No binding competition
[5] = biological target: T3, Retinoic acid receptor alpha (Homo sapiens, UniProt P10276); experiment: Binding affinity towards human Retinoic acid receptor alpha
T3 sequence (P10276 whole entry): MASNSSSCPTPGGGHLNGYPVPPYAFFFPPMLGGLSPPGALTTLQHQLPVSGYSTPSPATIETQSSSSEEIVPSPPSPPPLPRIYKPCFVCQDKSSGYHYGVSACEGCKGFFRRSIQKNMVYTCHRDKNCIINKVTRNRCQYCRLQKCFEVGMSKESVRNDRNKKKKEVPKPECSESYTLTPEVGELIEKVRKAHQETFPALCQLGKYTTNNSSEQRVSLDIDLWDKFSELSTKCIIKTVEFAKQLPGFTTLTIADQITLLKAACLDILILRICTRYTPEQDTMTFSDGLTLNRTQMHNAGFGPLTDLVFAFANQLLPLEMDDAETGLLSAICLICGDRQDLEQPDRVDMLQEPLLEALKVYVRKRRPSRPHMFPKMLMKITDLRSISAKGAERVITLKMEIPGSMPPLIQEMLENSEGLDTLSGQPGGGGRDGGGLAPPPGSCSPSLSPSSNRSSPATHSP

[6] = biological target: T2, Retinoic acid receptor RXR-gamma; experiment: Binding affinity towards Retinoic acid receptor RXR-gamma by displacing 3.4 nM 3[H]-9-cis-RA
[7] = biological target: T1, Retinoic acid receptor beta; experiment: Binding affinity towards cRAR-beta-2 receptor by displacing 1.1 nM 3[H]-9-cis-RA
[8] = biological target: T4, Retinoic acid receptor gamma (Homo sapiens, UniProt P13631); experiment: Binding affinity towards human Retinoic acid receptor gamma
T4 sequence (P13631 whole entry): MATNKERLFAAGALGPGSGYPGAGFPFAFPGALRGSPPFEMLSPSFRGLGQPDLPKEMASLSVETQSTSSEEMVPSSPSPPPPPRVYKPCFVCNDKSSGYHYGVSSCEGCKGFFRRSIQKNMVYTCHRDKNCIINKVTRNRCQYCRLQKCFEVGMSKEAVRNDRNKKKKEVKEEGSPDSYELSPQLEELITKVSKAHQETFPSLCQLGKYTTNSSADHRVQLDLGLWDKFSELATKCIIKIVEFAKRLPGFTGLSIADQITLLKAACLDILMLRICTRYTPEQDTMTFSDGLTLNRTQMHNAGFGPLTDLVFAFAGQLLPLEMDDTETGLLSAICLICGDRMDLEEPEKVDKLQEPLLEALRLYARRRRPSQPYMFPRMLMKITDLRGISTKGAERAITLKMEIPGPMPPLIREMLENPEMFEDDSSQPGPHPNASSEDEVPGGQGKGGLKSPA

[9] = biological target: T1, Retinoic acid receptor beta; experiment: Binding affinity towards cRARbeta2 receptor by displacing 0.82 nM 3[H]all-trans-RA

SMILES | Ki [1] | Ki [2] | Ki [3] | Ki [4] | Ki [5] | Ki [6] | Ki [7] | Ki [8] | Ki [9]
CCOC(=O)[C@H]1C[C@@]1(C)/C=C/C=C(C)/C=C/C1=C(C)CCCC1(C)C | Not Active | Not Active | Not Active | – | – | – | – | – | –
CCOC(=O)[C@@H]1C[C@@]1(C)/C=C/C=C(C)/C=C/C1=C(C)CCCC1(C)C | Not Active | Not Active | Not Active | – | – | – | – | – | –
C/C(=C\c1ccc(C(=O)O)cc1)c1ccc2c(c1)C(C)(C)CCC2(C)C | – | – | – | Not Active | – | – | – | – | –
CC(=C/C(=O)O)/C=C/C1CC1/C=C/C1=CC(C)(C)CCC1(C)C (stereo not drawn) | – | – | – | – | > 4000 nM | > 2800 nM | > 1200 nM | > 4000 nM | > 1100 nM
CC(/C=C/C1CC1/C=C/C1=CC(C)(C)CCC1(C)C)=C\C(=O)O (stereo not drawn) | – | – | – | – | 3.1 nM | > 7200 nM | 13 nM | 32 nM | 11 nM
CC1=C(/C=C/C(C)=C/C=C/C(C)=C/C(=O)O)C(C)(C)CCC1 [TRETINOIN] | – | – | – | Not Active | – | – | – | – | –
